Experimental data taken from ChEMBL document CHEMBL1129675, “New directions in antibacterial research” (1996).
Converted amounts (≈) assume the structure as drawn. The source made the active and inactive calls. No cut-off for these calls is given here. Starred links: 1 amine or outer side, 2 acyl side, 3 side chain; linkers in the order of their positions; H or OH if unused. Positions of bridges follow the written chain, without caps; N, C: chain ends. Non-standard residues stand in square brackets, D forms with d. Residues, ends and D or L forms follow the SMILES beside them. X1 = O=C([C@@H](N[*:1])c1ccc(O[C@H]2OC(CO)[C@@H](O)[C@@H](O)[C@@H]2O[C@H]2O[C@@H](CO)[C@@H](O)[C@H](O)[C@H]2O)cc1)[*:2]; X4 = CC(C)CC/C=C\C=C/C(=O)NC(CC(N)=O)C(=O)CC(C(=O)[*:1])C(O[*:2])C(N)=O; X2 = CC(C)C/C=C\C=C/C(=O)NC(CC(N)=O)C(=O)CC(C(=O)[*:1])C(O[*:2])C(N)=O; X3 = CCC/C=C\C=C/C(=O)NC(CC(N)=O)C(=O)CC(C(=O)[*:1])C(O[*:2])C(N)=O; Hpg(3-Cl) = N[C@H](C(=O)O)c1ccc(O)c(Cl)c1; Hpg = N[C@H](C(=O)O)c1ccc(O)cc1; Orn = NCCC[C@H](N)C(=O)O

What was measured:
Enterococcus faecalis = assay: Inhibitory activity against VanA strain of E. faecalis; Range is 0.03-2 ug/mL; assay type: functional
Enterococcus faecium [1] = assay: Inhibitory activity against VanA strain of E. faecium; Range is 0.03-2 ug/mL; assay type: functional
Staphylococcus aureus [2] = assay: Inhibitory activity against MRSA; assay type: functional
Streptococcus pyogenes = assay: Inhibitory activity against Streptococcus pyogenes; assay type: functional
Streptococcus pneumoniae = assay: Inhibitory activity against Streptococcus pneumoniae; assay type: functional
[3] = Inhibitory activity against VanB enterococci; Range is 0.016-1 ug/mL; assay type: functional
Pseudomonas aeruginosa = assay: Antibacterial activity against Pseudomonas aeruginosa was determined; Active; assay type: functional, organism-based
Staphylococcus aureus [4] = assay: Antibacterial activity against MRSA was determined; Active; assay type: functional, organism-based
Enterococcus = assay: Inhibitory activity against Vancomycin resistant enterococci; assay type: functional
[5] = Inhibitory activity against Lactobacillus species.; assay type: functional; settings: Bacteria
[6] = Inhibitory activity against Leuconostoc species.; assay type: functional
[7] = Inhibitory activity against Pediococcus species.; assay type: functional
Bacteroides fragilis = assay: Inhibitory activity against Bacteroides fragilis; assay type: functional
Bacteria = assay: Inhibitory activity against Corynebacterium; assay type: functional
Enterococcus faecium [8] = assay: Inhibitory activity against Enterococcus faecium; assay type: functional
Haemophilus influenzae = assay: Inhibitory activity against Haemophilus influenzae; assay type: functional
Moraxella catarrhalis = assay: Inhibitory activity against Moraxella catarrhalis; assay type: functional
[9] = system: Staphylococcus epidermidis; assay: Inhibitory activity against methicillin-resistant Staphylococcus epidermidis (MRSE); assay type: functional
[10] = system: Staphylococcus epidermidis; assay: Inhibitory activity against methicillin-sensitive Staphylococcus epidermidis (MSSE); assay type: functional
Staphylococcus aureus [11] = assay: Inhibitory activity against MSSA; assay type: functional
[12] = Inhibitory activity against many clinical relevent pathogen; Range is 5-50 ug/mL; assay type: functional

CN[C@H](CC(C)C)C(=O)N[C@H]1C(=O)N[C@@H](CC(N)=O)C(=O)N[C@H]2C(=O)N[C@H]3C(=O)N[C@](C)(C(=O)N[C@H](C(=O)O)c4cc(O)cc(O)c4-c4cc3ccc4O)[C@H](C[C@H]3C[C@](C)(N)[C@@H](O)[C@H](C)O3)c3ccc(c(Cl)c3)Oc3cc2cc(c3O[C@@H]2O[C@H](CO)[C@@H](O)[C@H](O)[C@H]2O[C@@H]2C[C@](C)(NCc3ccc(Oc4ccccc4)cc3)[C@@H](O)[C@H](C)O2)Oc2ccc(cc2Cl)[C@H]1O
MIC (Enterococcus faecalis): 0.03 µg/mL (≈ 0.0168 µM)
MIC (Enterococcus faecium [1]): 0.03 µg/mL (≈ 0.0168 µM)
MIC (Staphylococcus aureus [2]): ≤ 0.5 µg/mL
MIC (Streptococcus pyogenes): < 0.06 µg/mL
MIC (Streptococcus pneumoniae): < 0.008 µg/mL
MIC [3]: 0.016 µg/mL (≈ 0.00895 µM)

CN[C@H](CC(C)C)C(=O)N[C@H]1C(=O)N[C@@H](CC(N)=O)C(=O)N[C@H]2C(=O)N[C@H]3C(=O)N[C@](C)(C(=O)N[C@H](C(=O)O)c4cc(O)cc(O)c4-c4cc3ccc4O)[C@H](C[C@H]3C[C@](C)(N)[C@@H](O)[C@H](C)O3)c3ccc(c(Cl)c3)Oc3cc2cc(c3O[C@@H]2O[C@H](CO)[C@@H](O)[C@H](O)[C@H]2O[C@@H]2C[C@](C)(NCc3ccc(-c4ccc(Cl)cc4)cc3)[C@@H](O)[C@H](C)O2)Oc2ccc(cc2Cl)[C@H]1O
MIC (Enterococcus faecalis): 0.03 µg/mL (≈ 0.0166 µM)
MIC (Enterococcus faecium [1]): 0.03 µg/mL (≈ 0.0166 µM)
MIC (Staphylococcus aureus [2]): ≤ 0.5 µg/mL
MIC (Streptococcus pyogenes): < 0.06 µg/mL
MIC (Streptococcus pneumoniae): < 0.008 µg/mL
MIC [3]: 0.016 µg/mL (≈ 0.00886 µM)

CCCCC1CCC(CN[C@@]2(C)C[C@@H](O[C@H]3[C@H](Oc4c5cc6cc4Oc4ccc(cc4Cl)[C@@H](C[C@H]4C[C@](C)(N)[C@@H](O)[C@H](C)O4)[C@]4(C)NC(=O)[C@H](NC(=O)[C@@H]6NC(=O)[C@H](CC(N)=O)NC(=O)[C@H](NC(=O)[C@@H](CC(C)C)NC)[C@H](O)c6ccc(c(Cl)c6)O5)c5ccc(O)c(c5)-c5c(O)cc(O)cc5[C@@H](C(=O)O)NC4=O)O[C@H](CO)[C@@H](O)[C@@H]3O)O[C@@H](C)[C@@H]2O)CC1 (stereo not given in full)
MIC (Enterococcus faecalis): 0.03 µg/mL (≈ 0.0171 µM)
MIC (Enterococcus faecium [1]): 0.03 µg/mL (≈ 0.0171 µM)
MIC (Staphylococcus aureus [2]): ≤ 0.5 µg/mL
MIC (Streptococcus pyogenes): < 0.06 µg/mL
MIC (Streptococcus pneumoniae): < 0.008 µg/mL
MIC [3]: 0.016 µg/mL (≈ 0.00911 µM)

CN(C)[C@@H]1C(=O)C(C(N)=O)=C(O)[C@@]2(O)C(=O)C3=C(O)c4c(O)cccc4[C@H](CSCCCCl)C3[C@H](O)C12 (stereo not given in full)
MIC90 (Staphylococcus aureus [2]): 2 µg/mL (≈ 3.62 µM)

C[C@@H](O)[C@H]1C(=O)N2C(C(=O)O)=C(SCCNC=N)C[C@H]12
Activity (Pseudomonas aeruginosa): Active

C[C@@H]1[C@H](NC(=O)/C(=N\OCC(=O)NNC(=O)c2nc3cc(O)c(O)cc3nc2C(=O)O)c2csc(N)n2)C(=O)N1S(=O)(=O)O
Activity (Pseudomonas aeruginosa): Active

C[C@@H]1[C@H](NC(=O)/C(=N\OCc2cc3cc(O)c(O)cc3cc2C(=O)O)c2csc(N)n2)C(=O)N1S(=O)(=O)O
Activity (Pseudomonas aeruginosa): Active

C[C@H](O)[C@H]1C(=O)N2C(C(=O)[O-])=C(Sc3nc(-c4cc[n+](CC(N)=O)cc4)cs3)[C@H](C)[C@H]12
Activity (Staphylococcus aureus [4]): Active

Cc1nc(SCC2=C(C(=O)O)N3C(=O)[C@@H](NC(=O)/C(=N\OCc4cc(=O)c(O)cn4O)c4csc(N)n4)[C@H]3CS2)sc1C(=O)O
Activity (Pseudomonas aeruginosa): Active

CC(C)C/C=C\C=C/C(=O)NC(CC(N)=O)C(=O)CC1C(=O)N[C@@H](c2ccc(O)cc2)C(=O)N[C@@H](CCCN)C(=O)N[C@@H]([C@@H](C)O)C(=O)N[C@@H](c2ccc(O)cc2)C(=O)N[C@@H](c2ccc(O)cc2)C(=O)N[C@@H]([C@@H](C)O)C(=O)N[C@@H](Cc2ccccc2)C(=O)N[C@@H](CCCN)C(=O)N[C@@H](c2ccc(O[C@H]3OC(CO)[C@@H](O)[C@@H](O)[C@@H]3O[C@H]3O[C@@H](CO)[C@@H](O)[C@H](O)[C@H]3O)cc2)C(=O)N[C@@H]([C@@H](C)O)C(=O)N[C@@H](c2ccc(O)cc2)C(=O)NCC(=O)N[C@@H](CC(C)C)C(=O)N[C@@H](C)C(=O)N[C@@H](c2ccc(O)c(Cl)c2)C(=O)OC1C(N)=O (stereo not given in full) ([Hpg][Orn]T[Hpg][Hpg]TF[Orn][X1]T[Hpg]GLA[Hpg(3-Cl)]; linker N-C via X2)
MIC90 (Enterococcus): 0.5 µg/mL (≈ 0.196 µM)
MIC90 [5]: ≤ 0.25 µg/mL
MIC90 [6]: ≤ 0.25 µg/mL
MIC90 [7]: ≤ 0.25 µg/mL

CCC/C=C\C=C/C(=O)NC(CC(N)=O)C(=O)CC1C(=O)N[C@@H](c2ccc(O)cc2)C(=O)N[C@@H](CCCN)C(=O)N[C@@H]([C@@H](C)O)C(=O)N[C@@H](c2ccc(O)cc2)C(=O)N[C@@H](c2ccc(O)cc2)C(=O)N[C@@H]([C@@H](C)O)C(=O)N[C@@H](Cc2ccccc2)C(=O)N[C@@H](CCCN)C(=O)N[C@@H](c2ccc(O[C@H]3OC(CO)[C@@H](O)[C@@H](O)[C@@H]3O[C@H]3O[C@@H](CO)[C@@H](O)[C@H](O)[C@H]3O)cc2)C(=O)N[C@@H]([C@@H](C)O)C(=O)N[C@@H](c2ccc(O)cc2)C(=O)NCC(=O)N[C@@H](CC(C)C)C(=O)N[C@@H](C)C(=O)N[C@@H](c2ccc(O)c(Cl)c2)C(=O)OC1C(N)=O (stereo not given in full) ([Hpg][Orn]T[Hpg][Hpg]TF[Orn][X1]T[Hpg]GLA[Hpg(3-Cl)]; linker N-C via X3)
MIC90 (Enterococcus): 0.5 µg/mL (≈ 0.197 µM)
MIC90 [5]: ≤ 0.25 µg/mL
MIC90 [6]: ≤ 0.25 µg/mL
MIC90 [7]: ≤ 0.25 µg/mL

CC(C)CC/C=C\C=C/C(=O)NC(CC(N)=O)C(=O)CC1C(=O)N[C@@H](c2ccc(O)cc2)C(=O)N[C@@H](CCCN)C(=O)N[C@@H]([C@@H](C)O)C(=O)N[C@@H](c2ccc(O)cc2)C(=O)N[C@@H](c2ccc(O)cc2)C(=O)N[C@@H]([C@@H](C)O)C(=O)N[C@@H](Cc2ccccc2)C(=O)N[C@@H](CCCN)C(=O)N[C@@H](c2ccc(O[C@H]3OC(CO)[C@@H](O)[C@@H](O)[C@@H]3O[C@H]3O[C@@H](CO)[C@@H](O)[C@H](O)[C@H]3O)cc2)C(=O)N[C@@H]([C@@H](C)O)C(=O)N[C@@H](c2ccc(O)cc2)C(=O)NCC(=O)N[C@@H](CC(C)C)C(=O)N[C@@H](C)C(=O)N[C@@H](c2ccc(O)c(Cl)c2)C(=O)OC1C(N)=O (stereo not given in full) ([Hpg][Orn]T[Hpg][Hpg]TF[Orn][X1]T[Hpg]GLA[Hpg(3-Cl)]; linker N-C via X4)
MIC90 (Enterococcus): 0.5 µg/mL (≈ 0.195 µM)
MIC90 [5]: ≤ 0.25 µg/mL
MIC90 [6]: ≤ 0.25 µg/mL
MIC90 [7]: ≤ 0.25 µg/mL

CC(=O)NC[C@H]1CN(c2ccc(N3CCN(C(=O)CO)CC3)c(F)c2)C(=O)O1 [EPEREZOLID]
MIC90 (Bacteroides fragilis): 16 µg/mL (≈ 40.6 µM)
MIC90 (Bacteria): 0.5 µg/mL (≈ 1.27 µM)
MIC90 (Enterococcus faecium [8]): 2 µg/mL (≈ 5.07 µM)
MIC90 (Haemophilus influenzae): 16 µg/mL (≈ 40.6 µM)
MIC90 (Moraxella catarrhalis): 4 µg/mL (≈ 10.1 µM)
MIC90 [9]: 1 µg/mL (≈ 2.54 µM)
MIC90 [10]: 1 µg/mL (≈ 2.54 µM)
MIC90 (Staphylococcus aureus [2]): 4 µg/mL (≈ 10.1 µM)
MIC90 (Staphylococcus aureus [11]): 4 µg/mL (≈ 10.1 µM)
MIC90 (Streptococcus pyogenes): 1 µg/mL (≈ 2.54 µM)
MIC90 (Streptococcus pneumoniae): 0.5 µg/mL (≈ 1.27 µM)

CC(=O)NC[C@H]1CN(c2ccc(N3CCOCC3)c(F)c2)C(=O)O1 [LINEZOLID]
MIC90 (Bacteroides fragilis): 4 µg/mL (≈ 11.9 µM)
MIC90 (Bacteria): 0.5 µg/mL (≈ 1.48 µM)
MIC90 (Enterococcus faecium [8]): 4 µg/mL (≈ 11.9 µM)
MIC90 (Haemophilus influenzae): 16 µg/mL (≈ 47.4 µM)
MIC90 (Moraxella catarrhalis): 4 µg/mL (≈ 11.9 µM)
MIC90 [9]: 2 µg/mL (≈ 5.93 µM)
MIC90 [10]: 2 µg/mL (≈ 5.93 µM)
MIC90 (Staphylococcus aureus [2]): 4 µg/mL (≈ 11.9 µM)
MIC90 (Staphylococcus aureus [11]): 4 µg/mL (≈ 11.9 µM)
MIC90 (Streptococcus pyogenes): 2 µg/mL (≈ 5.93 µM)
MIC90 (Streptococcus pneumoniae): 1 µg/mL (≈ 2.96 µM)

CC[C@H](C)[C@H](NC(=O)CN)C(=O)NCC(=O)N[C@@H](CCCCN)C(=O)N[C@@H](Cc1ccccc1)C(=O)N[C@@H](CC(C)C)C(=O)N[C@@H](Cc1c[nH]cn1)C(=O)N[C@@H](CO)C(=O)N[C@@H](C)C(=O)N[C@@H](CCCCN)C(=O)N[C@@H](CCCCN)C(=O)N[C@@H](Cc1ccccc1)C(=O)NCC(=O)N[C@@H](CCCCN)C(=O)N[C@@H](C)C(=O)N[C@@H](Cc1ccccc1)C(=O)N[C@H](C(=O)NCC(=O)N[C@@H](CCC(=O)O)C(=O)N[C@H](C(=O)N[C@@H](CCSC)C(=O)N[C@@H](CC(N)=O)C(=O)N[C@@H](CO)C(=O)O)[C@@H](C)CC)C(C)C [MAGAININ 2] (H-GIGKFLHSAKKFGKAFVGEIMNS-OH)
MIC [12]: 5 µg/mL (≈ 2.03 µM)

CN(C)c1ccc(O)c2c1C[C@H]1C[C@H]3[C@H](N(C)C)C(O)=C(C(N)=O)C(=O)[C@@]3(O)C(O)=C1C2=O [MINOCYCLINE]
MIC90 (Staphylococcus aureus [2]): 16 µg/mL (≈ 35 µM)
